Results from patent publication US10501493B2, “Broad spectrum antibiotics” (priority 2011, dated 2019).
In brackets after ≈: the same amount, converted by molar mass.

What was measured:
E. coli ATCC 25922 = experiment: In vitro antimicrobial activity, MIC by broth micro-dilution; type: cell-based; details: Escherichia coli, ATCC25922; read-out: MIC class, E. coli ATCC 25922
Description: (§1) In vitro antimicrobial activity of each compound was determined by measuring minimal inhibitor concentrations (MICs) using the broth micro-dilution technique as approved by the Clinical and Laboratory Standards Institute (CLSI). The microbiological panel examined contains a number of bacterial species including E. coli MG1655, P. aeruginosa, S. aureus, and S. epidermidis. In addition, the panel includes previously described pseudo-isogenic strains of these four species (P. A. Smith et al. Chem Biol 2010, 1223-1231), in which a specific proline residue in SPase (called LepB in Gram-negative organisms an SpsB in Gram-positive organisms) has been mutated to a different amino acid. The resulting strains have increased susceptibility to the arylomycin class of antibiotics. Analysis of the strains lacking this proline residue will increases the dynamic range of the assay, and comparison of the sensitivities of the isogenic pairs provides ongoing confirmation that the activity gained through derivatization is specific to the inhibition of SPase. Briefly, bacterial streaks were grown on Mueller Hinton Agar II (Difco™) with or without 5% lysed horse blood for a period of 24 hours at either 35° C. or 28° C. Bacterial colonies were suspended in cation adjusted Mueller Hinton broth and diluted to a final concentration of 1*10^7 colony forming units/ml. Two-fold serial dilutions of each compound were arrayed into 96-well plates (100 μl final volume per well) and 5 ul of the bacterial suspension will be added. […] MICs were periodically checked plating serial dilutions of MIC wells and quantitatively determining viable colonies.

[1] = system: S. aureus NCTC-8325 SpsB(P295); experiment: as above; type: cell-based; details: Staphylococcus aureus, NCTC8325, read-out: MIC class, S. aureus NCTC-8325 SpsB(P295)
Description: as §1

S. epidermidis RP62A = experiment: as above; type: cell-based; details: Staphylococcus epidermidis, RP62A; read-out: MIC class, S. epidermidis RP62A
Description: as §1

S. pneumoniae D39 = experiment: as above; type: cell-based; details: Streptococcus pneumoniae, D39; read-out: MIC class, S. pneumoniae D39
Description: as §1

[2] = system: E. col ATCC 25922 LepB(P84L); experiment: as above; type: cell-based, E. coli; details: Escherichia coli, ATCC25922, read-out: MIC class, E. col ATCC 25922 LepB(P84L)
Description: as §1

S. aurues NCTC-8325 = experiment: as above; type: cell-based, S. aureus; details: Staphylococcus aureus, NCTC8325, read-out: MIC class, S. aurues NCTC-8325
Description: as §1

E. coli SPase = biological target: T1, E. coli SPase (Escherichia coli, UniProt P00803); experiment: Enzymatic fluorogenic substrate cleavage assay for IC50; type: biochemical
T1 construct: Full length His-tagged E. coli SPase proteins were expressed in E. coli BL21(DE3); His-tag; made in house; host or cells: E. coli BL21(DE3)
Description: (§2) Full length His-tagged E. coli SPase proteins were expressed in E. coli BL21(DE3) containing the plasmid pET23-lepB, P. A. Smith et al. Chem Biol 2010, 1223-1231. Briefly, saturated overnight cultures grown in 20 ml of Luria-Bertani medium supplemented with ampicillin were subcultures into 1.5 L of Luria-Bertani, and shaken at 37° C. until an optical density at 600 nm of 0.4-0.5 was achieved. Protein expression was induced with Isopropyl β-D-1-thiogalactopyranoside (ITPG) at a final concentration of […], and purified using nickel affinity chromatography. Full length His-tagged S. aureus SPase protein was expressed similarly from E. coli BL21(DE3) containing the plasmid pCDF1-SaSpsB or pCDF1-SaSpsB(P29S) and purified similarly to the E. coli protein with the following exceptions. SPase protein was solubilized using 300 mM NaCl, 20 mM Tris pH 8.06, 5 mM Imidazole, 10% glycerol, 1% Triton X-100, prior to purification in Ni-NTA Superflow resin and resin bound protein was washed in a similar buffer containing 1% Elugent in place of Triton X-100 prior to protein eluted in wash buffer supplemented with 300 mM imidazole. Protein purify was judged to exceed 95% by visual inspection of SDS-PAGE followed by Comassie staining. All protein concentrations were determined by BCA assay.
(§3) In addition to the equilibrium binding assays, compound activity is also characterized by measuring inhibition of E. coli and S. aureus substrate cleavage reactions using fluorogenic peptides developed at RQx Pharmaceuticals. Briefly, two fluorogenic peptide substrates (decanoyl-LSSPA Y^NO2 A ? ADK^abzPD (SEQ ID NO: 1) and decanyol-LTPTAY^NO2 A ? ASKK^abzDD (SEQ ID NO: 2)) have been synthesized, where abz is the fluorescence donor 2-aminobenzamide, YNO2 is the fluorescence acceptor 3-nitrotyrosine, and the cleavage site is indicated with an arrow. These substrates are processed with a second order rate constant (Kcat/KM) of 10^5 M^−1s^−1 for E. coli and S. aureus SPase enzymes, and cleavage results in a greater than 10-fold increase in fluorescence signal (excitation at 314 nm, emission at 416 nm) as measured using a SpectraMax M2 fluorescence microplate reader. Two-folder serial dilutions of compound are prepared in cleavage reaction buffer consisting of: 50 mM Tris-HCl pH 8.0, 100 mM NaCl, 10% glycerol, 1 mM EDTA, detergent (1% NP-40 or 0.1% Elugent™ for E. coli LepB or S. aureus SpsB respectively) and either 2.5 nM of E. coli SPase enzyme or 10 nM of S. aureus SPase enzyme. 40 μl aliquots of the compound dilution series in the protein/buffer solution is transferred to black 384-well polypropylene plates, and 10 μl of fluorogenic peptide at a concentration of 100 μM is added to initiate the reaction. The increase in fluorescence, corresponding to substrate cleavage, is monitored continuously at room temperature for 30 minutes and initial reaction rates are calculated based in the linear increase in fluorescence from the initial 30 minutes of the reaction. Reaction rates are plotted as a function of compound concentration, and IC50 values are determined nonlinear regression analysis (SoftMax® Pro v5.4) of the sigmoidal dose-response curve.

S. aureus SPase = biological target: T2, S. aureus SPase (Staphylococcus aureus, UniProt P0A070); experiment: as above; type: biochemical
T2 construct: Full length His-tagged S. aureus SPase protein was expressed similarly; His-tag; made in house; host or cells: E. coli BL21(DE3)
Description: as §2, §3

| Compound | MIC (E. coli ATCC 25922) [µg/mL] | MIC [1] [µg/mL] | MIC (S. epidermidis RP62A) [µg/mL] | MIC (S. pneumoniae D39) [µg/mL] | MIC [2] [µg/mL] | MIC (S. aurues NCTC-8325) [µg/mL] | IC50 (E. coli SPase) [µM] | IC50 (S. aureus SPase) [µM] |
| --- | --- | --- | --- | --- | --- | --- | --- | --- |
| CCCCCCCCCCCCCCCC(=O)N(C)[C@H](CO)C(=O)N[C@H](C)C(=O)NCC(=O)N(C)[C@@H]1C(=O)N[C@@H](C)C(=O)N[C@H](C(=O)N[C@@H](CO)C(C)C)Cc2ccc(O)c(c2)-c2cc1ccc2O [Compound 66] | > 64 | > 64 | 16 to 64 (≈ 16.6 to 66.2 µM) | 16 to 64 (≈ 16.6 to 66.2 µM) | 16 to 64 (≈ 16.6 to 66.2 µM) | > 64 | 1 to 10 | > 10 |
| CCCCCCCCCCCCCCCC(=O)N(C)[C@H](CO)C(=O)N[C@H](C)C(=O)N(C)CC(=O)N(C)[C@@H]1C(=O)N[C@@H](C)C(=O)N[C@H](C(=O)O)Cc2ccc(O)c(c2)-c2cc1ccc2O [Compound 84] | > 64 | > 64 | 16 to 64 (≈ 17.9 to 71.5 µM) | < 8 | > 64 | > 64 | < 1 | < 1 |
| CCCCCCCCCCCCCCCC(=O)N(C)C(CO)C(=O)N[C@H](C)C(=O)NCC(=O)N(C)[C@@H]1C(=O)N[C@@H](C)C(=O)NC(C(=O)NCC(O)C(N)=O)Cc2ccc(O)c(c2)-c2cc1ccc2O (some centres unmarked) [Compound 82] | > 64 | > 64 | > 64 | 16 to 64 (≈ 16.5 to 66.2 µM) | > 64 | > 64 | 1 to 10 | > 10 |
| CCCCCCCCCCCCCCCC(=O)N(C)[C@H](CO)C(=O)N[C@H](C)C(=O)NCC(=O)N(C)[C@@H]1C(=O)N[C@@H](C)C(=O)N[C@H](C(=O)NCCOC)Cc2ccc(O)c(c2)-c2cc1ccc2O [Compound 61] | > 64 | > 64 | > 64 | < 8 | 16 to 64 (≈ 17.1 to 68.2 µM) | > 64 | 1 to 10 | > 10 |
| CCCCCCCCCCCCCCCC(=O)N(C)[C@H](CO)C(=O)N[C@H](C)C(=O)NCC(=O)N(C)[C@@H]1C(=O)N[C@@H](C)C(=O)N[C@H](C(=O)N[C@H](C)CO)Cc2ccc(O)c(c2)-c2cc1ccc2O [Compound 63] | > 64 | > 64 | 16 to 64 (≈ 17.1 to 68.2 µM) | 16 to 64 (≈ 17.1 to 68.2 µM) | > 64 | > 64 | > 10 | > 10 |
| CCCCCCCCCCC(=O)N(C)[C@H](CO)C(=O)N[C@H](C)C(=O)NCC(=O)N(C)[C@@H]1C(=O)N[C@@H](C)C(=O)N[C@H](C(=O)O)Cc2ccc(O)c(c2)-c2cc1ccc2O [Compound 85] | > 64 | > 64 | < 8 | > 64 | 16 to 64 (≈ 19.7 to 78.9 µM) | > 64 | < 1 | 1 to 10 |
| CCCCCCCCCCCCCCCC(=O)N(C)[C@H](CO)C(=O)N[C@H](C)C(=O)NCC(=O)N(C)[C@@H]1C(=O)N[C@@H](C)C(=O)N[C@H](C(=O)NC[C@@H](C)O)Cc2ccc(O)c(c2)-c2cc1ccc2O [Compound 65] | > 64 | > 64 | < 8 | 16 to 64 (≈ 17.1 to 68.2 µM) | 16 to 64 (≈ 17.1 to 68.2 µM) | > 64 | < 1 | 1 to 10 |
| CCCCCCCCCCCCCCCC(=O)N(C)[C@H](CO)C(=O)N[C@H](C)C(=O)NCC(=O)N(C)[C@@H]1C(=O)N[C@@H](C)C(=O)N[C@H](C(=O)NCC(O)C(=O)OC)Cc2ccc(O)c(c2)-c2cc1ccc2O (some centres unmarked) [Compound 75] | > 64 | > 64 | < 8 | < 8 | < 8 | > 64 | < 1 | > 10 |
| CCCCCCCCCCCCCCCC(=O)N(C)[C@H](CO)C(=O)N[C@H](C)C(=O)NCC(=O)N(C)[C@@H]1C(=O)N[C@@H](C)C(=O)N[C@H](C(=O)N[C@H](CO)Cc2cnc[nH]2)Cc2ccc(O)c(c2)-c2cc1ccc2O [Compound 71] | > 64 | > 64 | > 64 | 16 to 64 (≈ 15.9 to 63.7 µM) | > 64 | > 64 | > 10 | > 10 |
| CCCCCCCCCCCCCCCC(=O)N(C)[C@H](CO)C(=O)N[C@H](C)C(=O)NCC(=O)N(C)[C@@H]1C(=O)N[C@@H](C)C(=O)N[C@H](C(=O)N[C@H](CO)CCC)Cc2ccc(O)c(c2)-c2cc1ccc2O [Compound 69] | > 64 | > 64 | 16 to 64 (≈ 16.6 to 66.2 µM) | 16 to 64 (≈ 16.6 to 66.2 µM) | < 8 | > 64 | 1 to 10 | > 10 |
| CCCCCCCCCCCCCCCC(=O)N(C)[C@H](CO)C(=O)N[C@H](C)C(=O)NCC(=O)N(C)[C@@H]1C(=O)N[C@@H](C)C(=O)N[C@H](C(=O)NCC(O)C(=O)O)Cc2ccc(O)c(c2)-c2cc1ccc2O (some centres unmarked) [Compound 78] | > 64 | > 64 | > 64 | 16 to 64 (≈ 16.5 to 66.1 µM) | > 64 | > 64 | < 1 | > 10 |
| CCCCCCCCCCCCCCCC(=O)N(C)[C@H](CO)C(=O)N[C@H](C)C(=O)NCC(=O)N(C)[C@@H]1C(=O)N[C@@H](C)C(=O)N[C@H](C(=O)N[C@H](CO)C(C)O)Cc2ccc(O)c(c2)-c2cc1ccc2O (some centres unmarked) [Compound 68] | > 64 | > 64 | 16 to 64 (≈ 16.5 to 66.1 µM) | 16 to 64 (≈ 16.5 to 66.1 µM) | 16 to 64 (≈ 16.5 to 66.1 µM) | > 64 | 1 to 10 | > 10 |
| CCCCCCCCCCCCC(=O)N(C)[C@H](CO)C(=O)N[C@H](C)C(=O)NCC(=O)N(C)[C@@H]1C(=O)N[C@@H](C)C(=O)N[C@H](C(=O)O)Cc2ccc(O)c(c2)-c2cc1ccc2O [Compound 86] | > 64 | < 8 | 16 to 64 (≈ 19.1 to 76.3 µM) | 16 to 64 (≈ 19.1 to 76.3 µM) | < 8 | > 64 | < 1 | < 1 |
